Laboratory results published in paper PMC6324689 (Oncotarget, 2018).
Read-outs that look alike come from different tables or passages of the source.

Test: Tissue and plasma PK in OVC134 ovarian PDX model
Type: in vivo, BALB/c nude mice
Conditions: for Brain AUC0-last / Tumor AUC0-last / Brain PK AUC0-last / Tumor PK AUC0-last: niraparib 50 mg/kg qd (AUC0-24h); for Brain AUC0-last / Tumor AUC0-last: olaparib 67 mg/kg bid (AUC0-12h); for Brain AUC0-last / Tumor AUC0-last / Brain PK AUC0-last / Kp / Plasma PK Dose normalized AUC0-24h / Tumor PK AUC0-last / Tumor PK Dose normalized AUC0-24h: 2 days; for Brain PK AUC0-last / Tumor PK AUC0-last: olaparib 67 mg/kg bid (AUC0-12h) oral; for Kp / Plasma PK Dose normalized AUC0-24h / Tumor PK Dose normalized AUC0-24h: niraparib 50 mg/kg qd; for Tmax: po; for Cmax: read-out: brain concentration at Cmax; for Plasma PK Dose normalized AUC0-24h / Tumor PK Dose normalized AUC0-24h: olaparib 67 mg/kg bid oral
Protocol: PK and efficacy studies in the orthotopic MDA-MB-436 human cell line-derived breast cancer model, subcutaneous A2780 and OVCAR3 human cell line-derived ovarian cancer models, and subcutaneous OV5308 and OV5311 patient-derived ovarian cancer xenograft models were conducted at Crown Bioscience (Taicang, China or San Diego, USA). PK and efficacy studies in the OVC134 and OVC527 patient-derived ovarian cancer xenograft models and subcutaneous Capan-1 and intracranial Capan-1-luc human cell line derived pancreatic cancer models were performed at Pharmaron, Inc. (Beijing, China). PK studies were conducted with 3 mice at each timepoints. For efficacy studies, typically 6 to 10 mice were randomized to each group. The protocol and any amendment(s) or procedures involving the care and use of animals in these studies were reviewed and approved by the Institutional Animal Care and Use Committee (IACUC) of Pharmaron or CrownBio prior to conduct. During the study, the care and use of animals was conducted in accordance with the regulations of the Association for Assessment and Accreditation of Laboratory Animal Care (AAALAC).
Seven- to 9-week-old female NOD/SCID mice (Beijing HFK Bio-Technology Co. Ltd., Beijing, China or Shanghai Lingchang Bio-Technology Co. Ltd., Shanghai, China) were inoculated at the right mammary fat pad with the MDA-MB-436 tumor cells (1 × 10^7) in 0.2 mL of phosphate-buffered saline (PBS) mixed with matrigel (1:1) for tumor development. For the A2780 or OVCAR3 tumor development, 6- to 8-week-old or 8- to 9-week-old female BALB/c Nude mice (Shanghai SIPPR-Bk Lab Animal Co. Ltd., Shanghai, China) were inoculated subcutaneously at the right flank with 5 × 10^6 tumor cells in 0.1 mL of PBS (1:1 mixed with matrigel) or with 1 × 10^7 tumor cells in 0.1 mL of PBS (1:1 mixed with matrigel). 6- to 8-week-old female NOD/SCID mice (Envigo Laboratories, USA) were inoculated at the rear flank with the OV5311 tumor cells (3 × 10^5) in 0.2 mL of PBS mixed with Cultrex ECM (1:1) or with OV5308 tumor cells (9 × 10^4) in 0.2 mL of PBS mixed with Cultrex ECM (1:1) for tumor development. 6- to 8-week-old female BALB/c nude mice (Beijing AniKeeper Biotech Co. Ltd., Beijing, China) were inoculated subcutaneously on the right flank with a tumor fragment (2 mm × 2 mm × 2 mm) of the OVC134 or OVC527 human primary ovarian cancer for tumor development. For the Capan-1 subcutaneous tumor model development, 6- to 8-week-old female BALB/c Nude mice were inoculated subcutaneously at the right flank with 4 × 10^6 tumor cells in 0.1 mL of IMDM without serum (1:1 mixed with matrigel). For the Capan-1-luc tumor development, mice were anesthetized by intraperitoneal (IP) injection of ketamine/xylazine (90-120/5-10mg/kg). The skins over the coronal and sagittal sutures were sterilized with iodine followed by alcohol. An incision of 0.5 cm was made along the skin over the midline to expose coronal and sagittal suture junctions. […] The injection was slowly proceeding over a one-minute period.
Frozen tumor, brain, bone marrow, muscle and plasma samples were shipped to Charles River Laboratories (Agilux Laboratories, Inc, Worcester, MA) for bioanalytical sample analysis. Internal standard stock solution was prepared at 1 mg/mL in dimethyl sulfoxide. Internal standard spiking solution was prepared at 100 ng/mL in 80:20 (v:v) water:acetonitrile. CD-1 mouse plasma (K2EDTA), pooled mixed gender, was purchased from BioChemed Services (Winchester, VA). […] Plasma samples were not diluted prior to extraction. Tumor, muscle and brain samples were prepared for analysis by homogenization (on ice). After the samples were weighed, for every 1 g of tissue, 9 mL of 80:20 (v:v) water:acetonitrile was added to the sample.

[1] = female, BALB/c nude, mouse, brain and plasma, oral, OVC134 model, olaparib 67 mg/kg bid, read-out: AUC0-last Brain:Plasma
[2] = female, BALB/c nude, mouse, brain, read-out: Brain PK tmax
[3] = female, BALB/c nude, mouse, oral, tumor-free brain of OVC134 model, steady state
[4] = female, BALB/c nude, mouse, plasma, read-out: Plasma PK tmax
[5] = female, BALB/c nude, mouse, tumor and plasma, oral, OVC134 model, olaparib 67 mg/kg bid, read-out: AUC0-last Tumor:Plasma
[6] = female, BALB/c nude, mouse, tumor, read-out: Tumor PK tmax

Row | Structure (SMILES) | Brain AUC0-last (OVC134 model) | Tumor AUC0-last (OVC134 model) | time detectable in brain following drug administration (OVC134 model, olaparib 67 mg/kg bid) | Brain PK AUC0-last (brain, OVC134 model) | Kp [1] | Tmax [2] | concentration at 2 h (female, BALB/c nude, mouse, oral, 67 mg/kg, tumor-free brain of OVC134 model, read-out: brain concentration at 2 hours post dose) | Cmax [3] | Tmax [4] | Kp [5] | Tmax [6] | Plasma PK Dose normalized AUC0-24h (plasma, OVC134 model) | Tumor PK AUC0-last (tumor, OVC134 model) | Tumor PK Dose normalized AUC0-24h (tumor, OVC134 model) | brain concentration at trough (tumor-free brain of OVC134 model, steady state)
1 | O=C(c1cc(Cc2n[nH]c(=O)c3ccccc23)ccc1F)N1CCN(C(=O)C2CC2)CC1 [Olaparib] | 0.45 µg·h/g | 9.73 µg·h/g | ≤ 6 h | 0.45 µg·h/g | ~0.03 | 0.5 h | 100 nM | ~2000 nM | 0.5 h | 0.6 to 0.7 | 0.5 h | 0.53 µM·h/mg | 9.73 µg·h/g | 0.33 µM·h/mg | –
2 | NC(=O)c1cccc2cn(-c3ccc([C@@H]4CCCNC4)cc3)nc12 [Niraparib, 2-{4-[(3S)-piperidin-3-yl]phenyl}-2H-indazole-7-carboxamide] | 8.31 µg·h/g | 83.14 µg·h/g | – | 8.31 µg·h/g | ~0.3 | 4 h | – | ~4000 nM | 4 h | 3.3 | 4 h | 1.59 µM·h/mg | 83.14 µg·h/g | 5.19 µM·h/mg | ≈ 0.6 μM
